We go through eight compounds from patent EP0039059A2, “Anti-inflammatory drugs and their application” (F. HOFFMANN-LA ROCHE & CO. Aktiengesellschaft, priority 1980, dated 1981).

The subject of experiment [1] is Krotonöl-Entzündung in der Maus. Put plainly: Croton oil inflammation in the mouse (ear punch weight). It is filed as in vivo, Mäusen (Charles River CD-1). The note with it: for Gewicht der Ohrstücke in mg: croton oil alone 19,7±0,6, vehicle without croton oil 7,2; for Hemmung in %: topical, mouse ear, 6 h. On the procedure:
Eine Lösung aus 0,1 Teilen Krotonöl, 1 Teil destilliertem Wasser, 4 Teilen Pyridin und 4,9 Teilen Diäthyläther (Volumenteile), welche die Testverbindung enthält, wird topisch auf Ohren von 21 Tage alten männlichen Mäusen (Charles River CD-1) gegeben (25 ul). Verschiedene Gruppen von Mäusen dienten als Kontrollgruppen (Trägermaterial-Gruppe und Krotonöl-Gruppe). Nach 6 Stunden wird das Gewicht der Ohrstücke bestimmt, das in erster Linie ein Mass für die Oedem-Komponente der Entzündung ist. Verminderung des Gewichtes von Ohrstücken, welche von Mäusen erhalten wurden, welche mit der Testverbindung und dem Reizmittel behandelt worden sind, verglichen mit dem Gewicht von Ohrstücken, die von Mäusen erhalten wurden, die nur mit dem Reizmittel behandelt worden sind, zeigt entzündungshemmende Wirkung an (Endocrinology 77, 625-634, 1965; Clin. Pharm. Exp. Therap. 16, 900-904, 1974).
Die Verbindung E wird bei 3 verschiedenen Dosierungen im Krotonöl-Entzündungs-Test in der Maus auf ihre topisch entzündungshemmende Wirkung hin geprüft. Ebenfalls getestet werden Hydrocortison, ein bekanntes topisch entzündungshemmendes Corticosteroid, und eine Reihe von bekannten Verbindungen, welche systemisch entzündungshemmend wirken und nicht zur Klasse der Steroide gehören. Die Testresultate (Hemmung in Prozenten) sind in der unten stehenden Tabelle angegeben. Wie man diesen Resultaten entnehmen kann, entfaltet die Verbindung E eine vergleichbare Aktivität wie Hydrocortison, währenddem die anderen Verbindungen, welche nicht zur Klasse der Steroide gehören, in wesentlich höheren Dosierungen verabreicht werden müssen, um eine vergleichbare Hemmung zu bewirken, wie die Verbindung E und Hydrocortison.
Die entzündungshemmende Wirkung der Verbindung E alleine oder in Kombination mit 4-(3-Butoxy-4-methoxybenzyl)-2-imidazolidinon wird im Krotonöl-Test an der Maus bestimmt. Die Verbindung E wird bei verschiedenen Konzentrationen verwendet. 4-(3-Butoxy-4-methoxybenzyl)-2-imida- zolidinon wird, sofern vorhanden, in einer Konzentration von 5 Gewichtsprozenten (bezogen auf das Gewicht der applizierten Lösung) eingesetzt. Die Testresultate sind in der unten stehenden Tabelle aufgeführt.

Experiment [2] deals with Oxazolon-Entzündung in vorsensibilisierten Mäusen. Put plainly: Oxazolone inflammation in presensitised mice (ear punch weight). It is filed as in vivo, Mäuse (Charles River CD-1). Particulars: topical, mouse ear, 24 h. On the procedure: 21 Tage alte männliche Mäuse (Charles River CD-1) werden mit Oxazolon sensibilisiert, indem man 400 ug Oxazolon in 20 ul Aceton topisch auf das Scrotum appliziert.. Eine Woche später werden 10 ul Aceton oder 200 µg Oxazolon topisch auf die innere Oberfläche des Ohres und die Testverbindung in 10 µl Aceton auf die äussere Oberfläche des Ohres appliziert. Verschiedene Gruppen von Mäusen dienten als Kontrollgruppen (Trägermaterial-Gruppe und Oxazolon-Gruppe). Das Gewicht der Ohrstücke wird 24 Stunden später bestimmt. Verminderung des Gewichtes der Ohrstücke, erhalten aus Mäusen, welche mit der Testverbindung und mit Oxazolon behandelt worden sind, verglichen mit dem Gewicht der Ohrstücke, erhalten aus Mäusen, welche mit Oxazolon alleine behandelt worden sind, zeigt entzündungshemmende Wirkungen (Br. J. Pharmacol. 43, 403-408, 1971).
Die topisch entzündungshemmenden Wirkungen der Verbindung E, Hydrocortison und Indomethacin werden bei verschiedenen Dosierungen im Oxazolon-Entzündungs-Test in vorsensibilisierten Mäusen bestimmt. Die Testresultate (Hemmung in %) sind in der untenstehenden Tabelle angegeben.

For experiment [3], the system named is Baumwollkügelchen-Granuloma. Put plainly: Cotton pellet granuloma method in the rat. It is filed as in vivo, Ratten (Charles River CD). The note with it: s.c. implant, 72 h; for durchschnittliches Nettogewicht der Kügelchen in mg trocken: ethanol vehicle 32.6; for durchschnittliches Nettogewicht der Kügelchen in mg feucht: ethanol vehicle 392.5. The protocol:
Man löst die Testverbindung in einem geeigneten Lösungsmittel und appliziert jeweils 0,1 ml dieser Lösung auf einheitliche, vorher gewogene Baumwollkügelchen, die man aus Baumwolltampons herausgeschnitten hat. Man trocknet die Baumwollkügelchen bei Raumtemperatur. 2 mit der Testverbindung imprägnierte Kügelchen werden auf dem Dorsum von 5 Wochen alten männlichen Ratten (Charles River CD) subcutan inplantiert. 72 Stunden später werden die Kügelchen entfernt. Man bestimmt das Feucht- und Trockengewicht und korrigiert um das Tara der Kügelchen. Vergleicht man nun die Gewichte der Granulomata, die man von mit der Testverbindung imprägnierten Kügelchen erhalten hat, mit den Gewichten der Granulomata, die man von nur mit Trägermaterial imprägnierten Kügelchen erhalten hat, miteinander, so zeigt eine Abnahme des Gewichtes entzündungshemmende Wirkung an (Endocrinology 60, 153-160, 1957).
Die topisch entzündungshemmenden Wirkungen der Verbindung E und Hydrocortison werden durch Verwendung des Baumwollkügelchen-Granuloma-Verfahrens an der Ratte bestimmt. Die in der unten stehenden Tabelle angegebenen Testresultate zeigen, dass die Verbindung E bei Dosierungenen von 90 und 270 µg/0,1 ml grösser ist als die Akti- vität von Hydrocortison (niedrigere Feucht- und Trockengewichte).

The test system of experiment [4] is Cantharidin-Entzündung in der Ratte. Put plainly: Cantharidin inflammation in the rat (ear punch weight). The experiment is classed as in vivo, Ratten (Charles River CD). The note with it: 100 µg/0,1 ml topical, compound given 24 h after cantharidin, autopsy 72 h. On the procedure:
Eine Lösung aus einem Teil Aethanol, 1,5 Teilen Collodion, 2 Teilen Aceton und 3 Teilen Diäthyläther (Volumenteile), welche 400 ug Cantharidin/0,1 ml und die Testverbindung in der gewünschten Menge enthält, wird topisch auf die äussere Oberfläche von Ohren von 21 Tage alten männlichen Ratten (Charles River CD) gegeben (0,1 ml). Andere Gruppen von Ratten werden mit Trägermaterial alleine, mit Cantharidin alleine und mit Cantharidin plus Testverbindung behandelt. Wo in den Beispielen angegeben, wird die Testverbindung 24 Stunden nach Verabreichung von Cantharidin verabreicht. 72 Stunden nach Verabreichung von Cantharidin wird eine Autopsie durchgeführt. Aus dem Ohr werden an der behandelten Stelle einheitliche Stücke herausgestanzt und gewogen. Aus den Gewichtsveränderungen lassen sich die Auswirkungen auf den Entzündungsprozess ermitteln, und zwar sowohl für die Flüssigkeits- als auch für die Gewebskomponente. Eine Reduktion des Gewichtes von Hautstücken, die man aus Ratten erhalten hat, welche mit dem Reizmittel und der Testverbindung behandelt worden sind, verglichen mit dem Gewicht von Hautstücken, welche man von Ratten erhalten hat, die nur mit dem Reizmittel behandelt worden sind, zeigt eine entzündungshemmende Wirkung an (J. Invest. Dermatol. 68, 161-164, 1977).
Eine Reihe von Verbindungen der allgemeinen Formel I werden im Cantharidin-Entzündungs-Test in der Ratte auf ihre topisch entzündungshemmenden Wirkungen hin ge- testet. Jede Verbindung wird bei 5 verschiedenen Dosierungen getestet. Die in der nachfolgenden Tabelle ange- gebenen Testresultate (in %) geben an, um wieviel die durch Cantharidin bewirkte Zunahme des Gewichtes der Ohrstücke durch die jeweilige Testverbindung reduziert wird: • [formula]
Die topisch entzündungshemmende Wirkung der Verbindung E wird bei einer Dosierung von 100 µg/0,1 ml im Cantharidin- Entzündungs-Test in der Ratte bestimmt, wobei man adrenalektomierte und intakte Ratten verwendet. Wie man den Testresultaten in der untenstehenden Tabelle entnehmen kann, entfaltet die Verbindung E an der adrenalektomierten Ratte etwa die gleich grosse Wirkung wie an der intakten Ratte. Dies zeigt an, dass der primäre Wirkungsmechanismus nicht in der Stimulierung der Nebennierenrinde besteht.

Setting [5] is: pellets impregnated with 90 µg/0.1 ml.
Where [6] appears, read: pellets impregnated with 270 µg/0.1 ml.

For the compound `CCCCOc1cc(CC2CNC(=O)N2)ccc1OC` (stereo not drawn) [4-(3-Butoxy-4-methoxybenzyl)-2-imidazolidinon], the “Gewicht der Ohrstücke in mg” value in experiment [1] (5% imidazolidinone, Verbindung E 0 µg/0,1 ml) is on record as 17,6±1,0 mg. For the same compound, the “entzündungshemmende Wirkung” value in experiment [1] (alone, at concentrations of 5%, test not given) is “nur wenig oder gar keine entzündungshemmende Wirkung”. Also, the “Einfluss auf die entzündungshemmende Wirkung der Verbindung E” value in experiment [1] (imidazolidinone at 5% combined with Verbindung E) is on record as “potenziert”.
Consider `CC(=O)Oc1ccccc1C(=O)O` [Acetylsalicyl säure], for which the Hemmung in % was found to be 28% in experiment [1] (dose 1250 µg/25 µl), 36% in experiment [1] (dose 2500 µg/25 µl), 78% in experiment [1] (dose 5000 µg/25 µl) and 88% in experiment [1] (dose 10000 µg/25 µl).
As to `CC(C(=O)O)c1cccc(Oc2ccccc2)c1` (stereo not drawn) [Fenoprofen], the Hemmung in % in experiment [1] (dose 1250 µg/25 µl) was determined as 50%; in experiment [1] (dose 2500 µg/25 µl), 71%.
As to `C[C@]12CCC(=O)C=C1CC[C@@H]1[C@@H]2[C@@H](O)C[C@@]2(C)[C@H]1CC[C@]2(O)C(=O)CO` [Hydrocortison], the Hemmung in % in experiment [2] (dose 50 µg/10 µl) worked out at 24%; in experiment [2] (dose 200 µg/10 µl), 49%; in experiment [1] (dose 50 µg/25 µl), 53%; in experiment [1] (dose 125 µg/25 µl), 77%; in experiment [1] (dose 250 µg/25 µl), 98%. The “durchschnittliches Nettogewicht der Kügelchen in mg trocken” value in experiment [3] (setting [5]) is given as 37.7 mg; in experiment [3] (setting [6]), 20.3 mg. The “durchschnittliches Nettogewicht der Kügelchen in mg feucht” value in experiment [3] (setting [5]) is 406.5 mg; in experiment [3] (setting [6]) it was 286.6 mg.
With `COc1ccc2c(c1)c(CC(=O)O)c(C)n2C(=O)c1ccc(Cl)cc1` [Indomethacin], the Hemmung in % in experiment [2] (dose 500 µg/10 µl) came to 32%; in experiment [2] (dose 1000 µg/10 µl) it was 59%.
Regarding `COc1ccc2cc([C@H](C)C(=O)O)ccc2c1` [Naproxen], the Hemmung in % is 60% in experiment [1] (dose 1250 µg/25 µl) and 87% in experiment [1] (dose 2500 µg/25 µl).
Consider `CN1CCN(C2=Cc3ccccc3Sc3ccc(Cl)cc32)CC1` [Verbindung E, 8-Chlor-10-(4-methylpiperazino)dibenzo-[b,f]thiepin], for which the Hemmung in % in experiment [2] (dose 100 µg/10 µl) is 51%; in experiment [2] (dose 500 µg/10 µl), 75%; in experiment [4] (adrenalectomised rats), 49%; in experiment [4] (intact rats), 55%; in experiment [1] (dose 100 µg/25 µl), 48%; in experiment [1] (dose 200 µg/25 µl) it was 67%. In experiment [1] (dose 500 µg/25 µl), this compound returned a Hemmung in % of 91%. Further, the “Gewicht der Ohrstücke” value is given as 18.6±0.6 in experiment [4] (adrenalectomised rats, vehicle 11.4±0.2, cantharidin alone 25.5±1.0) and 18.0±1.1 in experiment [4] (intact rats, vehicle 12.0±0.4, cantharidin alone 25.2±1.5). Further, the “Gewicht der Ohrstücke in mg” value in experiment [1] (Verbindung E alone, 100 µg/0,1 ml) is recorded as 15,9±0,8 mg; in experiment [1] (Verbindung E alone, 400 µg/0,1 ml), 11,8±0,6 mg. Further, the “durchschnittliches Nettogewicht der Kügelchen in mg trocken” value in experiment [3] (setting [5]) stood at 20.1 mg; in experiment [3] (setting [6]) it was 16.9 mg. Also, the “durchschnittliches Nettogewicht der Kügelchen in mg feucht” value came out at 285.2 mg in experiment [3] (setting [5]) and 234.9 mg in experiment [3] (setting [6]).
Phenylbutazon: the figures for the Hemmung in % in experiment [1] (dose 1250 µg/25 µl) and in experiment [1] (dose 2500 µg/25 µl) were 33% and 69%, respectively.
